Patent US20050042603A1, “Compositions and methods for peptide-assisted transfection” (Allele Biotechnology & Pharmaceuticals, Inc., priority 2003, published 2005)
Ends that are not written are not given here.

Tests used:
293T cells = assay type: cell-based, human; conditions: for Effect of other salts on enhancing TAN-mediated transfection: salt in place of CaCl2
Protocol: 293T (human embryonic kidney) cells were grown in Dulbecco's modified Eagle's medium (Life Technologies, Rockville, Md.) supplemented with 10% FBS, 100 units/ml penicillin, and 100 μg/ml of streptomycin in a 37° C. CO2 incubator. Cells were regularly passed to maintain growth. Twenty-four hours before transfection, cells were trypsinized and plated on 96-well plates (100 μl/well) in the above medium without the antibiotics. Ten μl of fraction 2 was added to 293T cells at 15% confluency in serum-containing medium. Fluorescence microscopy was performed at 12 hours, after changing medium and washing cells.
TAN (SEQ ID NO:3) at 0.1 to 5 μg per 96-well transfection was mixed with 0.1 μg plasmid pEGFP-N1 (BD ClonTech) for 5 min, diluted in 40 μl DMEM, then added to cells. Fluorescence microscopy was performed at different time points to observe the expression of GFP as the indication of transfection event. Note that by using GFP as reporter, the total transfection efficiency was underestimated due to certain percentage of cells would not express the GFP to levels high enough for detection.
Different concentrations of TAN (SEQ ID NO:3) and CaCl2 were tested in combination for transfection. TAT (SEQ ID NO:1) and another peptide, HT 31 (a widely used PKA-anchor interaction interruption peptide) were included as controls. Generally, experiments were performed similarly as in the above examples except that peptide was added to DNA first, followed by addition of CaCl2.

[1] = tested on: approximately 300 bp PCR product linear dsDNA; assay: Band-shift assay with short linear dsDNA (siRNA-expressing PCR product); assay type: binding; conditions: 30 min reaction, 2% gel
Protocol: In order to examine whether TAN could directly interact with the transfected plasmid DNA as predicted by the transfection results, band-shift assays were performed. Different amount of TAN (SEQ ID NO:3) dissolved in H2O was mixed with 0.5 μg of plasmid with or without 15 mM CaCl2, incubated for 5 min, followed by addition of 2 μl of DNA loading dye (30% glycerol), and loaded to 0.7% agarose gel. The EB-containing gel was run for about 45 min at 120 volts before the picture taken under UV lights.
The ability of TAN (SEQ ID NO:3) to bind short linear dsDNA also was examined. The DNA tested was an approximately 300 bp PCR product that is used to express small interfering RNAs (siRNAs). The experiments were done similarly to those described in Example 6, except that the reactions were allowed to proceed to 30 min and the gel was 2%. […] This difference may be due to a difference in the relative amount of DNA in each type of complex or to the structural constrains of linear versus circular DNA. […] Because these cassettes express siRNAs under the control of Pol III promoter as apposed to Pol II in GFP expression unit, it is therefore likely that peptide assisted transfection (PAT) is independent of promoter used, as expected.

[2] = tested on: monkey kidney cell Vero-E6; assay: Peptide as additive to TransIt-Oligo reagent transfection of pEFGP-N1; assay type: cell-based; conditions: 0.1 μg plasmid, 96-well, about 30% confluency, increasing amount of peptide

## [Cl-].[Cl-].[Mg+2] [MgCl2]
293T cells
  Effect of other salts on enhancing TAN-mediated transfection: showed no effect

## [Cl-].[Na+] [NaCl]
293T cells
  Effect of other salts on enhancing TAN-mediated transfection: showed no effect

## YGRKKRRQRRR [TAT]
[1]
  Behaviour at slightly increased concentration: quickly precipitated DNA
  Binding to linear dsDNA (band shift): did not bind at the lower concentrations
[2]
  Enhancement of TransIt-Oligo transfection by peptide: did not show such enhancement
293T cells; control peptides with CaCl2 and DNA
  Effect of control peptide together with CaCl2: caused cells to lyse

## YGRKKRRQRRRGQRNPNKKWS [TAN]
293T cells; peptide/Ca++ transfection
  Toxicity to treated cells (growth arrest, cell death): did not show arrest of growth or cell death
